Assay [1] deals with Rel hydrolase (HD). Kind of assay: Inhibition of Rel hydrolase activity: decrease of radioactive (p)ppGpp spot on TLC. It is filed as biochemical. As to conditions: radioactive (p)ppGpp incubated with enzyme, with vs without compound. As for the experimental part: (§1) As indicated above, the “Yes/No” in the 5th and 6th columns of TABLES A to F indicates whether there is, or respectively is not an inhibition of the synthetase (ST) and/or hydrolase (HD) activity. […] The action of a candidate compound is evaluated based on its effect on the production of (p)ppGpp. Therefore, in order to assess the potential influence of a candidate compound on synthesis activity, the enzyme was mixed with GDP or GTP and radioactive ATP to produce (p)ppGpp in absence or presence of the candidate compound. Subsequently, the reaction is developed by thin layer chromatography (TLC). In an alternative assay that enables determining the effect of a compound on the hydrolysis activity, radioactive (p)ppGpp is incubated with the enzyme and any decrease of the (p)ppGpp spot on TLC is evaluated when the assay is conducted in presence of the compound and compared to control conditions where no candidate compound is added during incubation.

For assay [2], the system named is Rel synthetase (ST). Put plainly: Inhibition of Rel synthetase activity: (p)ppGpp production from GDP or GTP and radioactive ATP, TLC. It is filed as biochemical. As to conditions: enzyme with GDP or GTP and radioactive ATP, absence or presence of compound. As for the experimental part: as §1

Molecules are shown by their SMILES.

Take `O=C1c2cccc3cc([N+](=O)[O-])cc(c23)C(=O)N1O` [Compound 50]: in assay [1], the “HD (inhibition of the hydrolase activity)” value is on record as “No”. Further, in assay [2], the “ST (inhibition of the synthetase activity)” value was “Yes”.

For `O=C(Nc1ccc(-n2cnc3ccccc32)nc1)c1ccc([N+](=O)[O-])o1` [Compound 43], the “HD (inhibition of the hydrolase activity)” value in assay [1] is given as “Yes”. Besides, the “ST (inhibition of the synthetase activity)” value in assay [2] is “Yes”.

For `O=C1c2ccccc2C(=O)N1CCCc1nc(-c2cccc([N+](=O)[O-])c2)no1` [Compound 33], the “HD (inhibition of the hydrolase activity)” value in assay [1] is on record as “Yes”. Further, the “ST (inhibition of the synthetase activity)” value in assay [2] is reported as “No”.

For `CC(C(=O)O)C(NC(=O)C(C)n1nnc(-c2ccccc2)n1)c1ccccc1` (stereo not shown) [Compound 61], the “HD (inhibition of the hydrolase activity)” value in assay [1] is on record as “Yes”. Further, the “ST (inhibition of the synthetase activity)” value in assay [2] is listed as “No”.

With `CSCCC(NS(=O)(=O)c1ccc2c3c(cccc13)C(=O)N2)C(=O)O` (stereo not shown) [Compound 47], the “HD (inhibition of the hydrolase activity)” value in assay [1] is reported as “Yes”. Further, the “ST (inhibition of the synthetase activity)” value in assay [2] was “Yes”.

For the compound `Cc1[nH]c2ccnn2c(=O)c1CC(=O)N(CCC(=O)O)CC1CCCO1` (stereo not shown) [Compound 54], the “HD (inhibition of the hydrolase activity)” value in assay [1] was “Yes”. In addition, the “ST (inhibition of the synthetase activity)” value in assay [2] is “No”.

With `Cc1c(Br)c([N+](=O)[O-])nn1CC(=O)Nc1ccc(Cl)cc1Cl` [Compound 67], the “HD (inhibition of the hydrolase activity)” value in assay [1] was “Yes”. Moreover, the “ST (inhibition of the synthetase activity)” value in assay [2] is recorded as “Yes”.

For `O=C(O)CNS(=O)(=O)c1ccc2c(c1)NC(=O)CS2` [Compound 3], the “HD (inhibition of the hydrolase activity)” value in assay [1] is on record as “Yes”. The “ST (inhibition of the synthetase activity)” value in assay [2] was “No”.

For `O=[N+]([O-])c1ccc(Sc2nnc3c(n2)[nH]c2ccccc23)c([N+](=O)[O-])c1` [Compound 64], the “HD (inhibition of the hydrolase activity)” value in assay [1] is given as “Yes”. Moreover, the “ST (inhibition of the synthetase activity)” value in assay [2] is recorded as “No”.

Turning to `O=C(O)C[C@H](NC(=O)COc1ccc2nc3n(c(=O)c2c1)CCC3)C(=O)O` [Compound 9], the “HD (inhibition of the hydrolase activity)” value in assay [1] is given as “yes”. Besides, the “ST (inhibition of the synthetase activity)” value in assay [2] is listed as “no”.

Consider `O=C(O)C1CCN(S(=O)(=O)c2ccc3[nH]c(=O)oc3c2)CC1` [Compound 42], for which the “HD (inhibition of the hydrolase activity)” value in assay [1] was “Yes”. Also, in assay [2], the “ST (inhibition of the synthetase activity)” value was “Yes”.

Regarding `O=c1oc2cc(OCc3nnn[nH]3)ccc2cc1-c1ccc(Cl)cc1` [Compound 20], the “HD (inhibition of the hydrolase activity)” value in assay [1] is “Yes”. In addition, the “ST (inhibition of the synthetase activity)” value in assay [2] is “Yes”.

Regarding `COc1ccc(CC(=O)Nc2ccc(N3CCC(N4CCCCC4)CC3)cc2C(=O)O)cc1` [Compound 73], the “HD (inhibition of the hydrolase activity)” value in assay [1] is reported as “Yes”. For the same compound, the “ST (inhibition of the synthetase activity)” value in assay [2] was “Yes”.

For `CC(NC(=O)c1cc([N+](=O)[O-])c[nH]1)c1ccc2ccccc2c1` (stereo not shown) [Compound 23], the “HD (inhibition of the hydrolase activity)” value in assay [1] is “Yes”. Moreover, in assay [2], the “ST (inhibition of the synthetase activity)” value is “Yes”.

For the compound `Cc1ccc(-n2cnnn2)cc1OCc1nnn[nH]1` [Compound 57], the “HD (inhibition of the hydrolase activity)” value in assay [1] is reported as “Yes”. The “ST (inhibition of the synthetase activity)” value in assay [2] is given as “No”.

For the compound `O=C1OCc2ccc(-c3ccc(/C=N/Nc4nnn[nH]4)o3)cc21` [Compound 45], in assay [1], the “HD (inhibition of the hydrolase activity)” value is “Yes”. For the same compound, the “ST (inhibition of the synthetase activity)” value in assay [2] is given as “Yes”.

Consider `O=[N+]([O-])c1nn(Cc2cccc(-c3nc4c5cn[nH]c5ncn4n3)c2)cc1Cl` [Compound 71], for which the “HD (inhibition of the hydrolase activity)” value in assay [1] is reported as “Yes”. Further, the “ST (inhibition of the synthetase activity)” value in assay [2] was “Yes”.

As to `O=C(O)CCS(=O)(=O)c1ccc2[nH]c(=O)oc2c1` [Compound 27], the “HD (inhibition of the hydrolase activity)” value in assay [1] is “Yes”. In addition, the “ST (inhibition of the synthetase activity)” value in assay [2] is reported as “No”.

In the case of `Cc1ccc(CC(=O)Nc2ccc(N3CCN(CC(=O)NC(C)(C)C)CC3)cc2C(=O)O)cc1` [Compound 70], the “HD (inhibition of the hydrolase activity)” value in assay [1] is reported as “Yes”. For the same compound, the “ST (inhibition of the synthetase activity)” value in assay [2] is given as “Yes”.

As for `Cc1ccc(CC(=O)Nc2ccc(N3CCC(N4CCCCC4)CC3)cc2C(=O)O)cc1` [Compound 74], the “HD (inhibition of the hydrolase activity)” value in assay [1] is listed as “Yes”. Moreover, the “ST (inhibition of the synthetase activity)” value in assay [2] is listed as “Yes”.

The record behind these values is patent publication US20230128889A1, “REL/RELA/SPOT SMALL MOLECULES MODULATORS AND SCREENING METHODS” (priority 2020, published 2023).
